Measurements taken from patent US20060069132A1, “Azolecarboxamide herbicides” (priority 2004, published 2006).

What was measured:
dallisgrass = assay: Test E pre-/postemergence herbicide test; type: in vivo, Paspalum dilatatum; settings: Preemergence
Procedure, shortened: (§1)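 Greenhouse response scored visually 12 to 14 days after treatment versus controls, 0 meaning no effect and 100 complete control. Compounds, formulated with surfactant in a non-phytotoxic solvent blend, were sprayed either preemergence after sowing or postemergence at the 1- to 4-leaf stage (2 to 18 cm).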

green foxtail [1] = assay: Test E pre-/postemergence herbicide test; type: in vivo, Setaria viridis; settings: Preemergence
Procedure, shortened: as §1

johnsongrass = assay: Test E pre-/postemergence herbicide test; type: in vivo, Sorghum halepense; settings: Preemergence
Procedure, shortened: as §1

southern sandbur = assay: Test E pre-/postemergence herbicide test; type: in vivo, Cenchrus echinatus; settings: Preemergence
Procedure, shortened: as §1

large crabgrass = assay: Test E pre-/postemergence herbicide test; type: in vivo, Digitaria sanguinalis; settings: Preemergence
Procedure, shortened: as §1

annual bluegrass = assay: Test E pre-/postemergence herbicide test; type: in vivo, Poa annua; settings: Preemergence
Procedure, shortened: as §1

prickly sida = assay: Test E pre-/postemergence herbicide test; type: in vivo, Sida spinosa; settings: Preemergence, scale 0 (no effect) to 100 (complete control)
Text: Seeds of plant species selected from bipinnate beggarticks (Bidens bipinnata L.), hairy beggarticks (Bidens radiata Thuill.), bermudagrass (Cynodon dactylon (L.) Pers.), Surinam grass (Urochloa decumbens (Staph) R. D. Webster, previously named Brachiaria decumbens Stapf), large crabgrass (Digitaria sanguinalis (L.) Scop.), green foxtail (Setaria viridis (L.) P. Beauv.), goosegrass (Eleusine indica (L.) Gaertn.), johnsongrass (Sorghum halepense (L.) Pers.), kochia (Kochia scoparia (L.) Schrad.), pitted morningglory (Ipomoea lacunosa L.), purple nutsedge (Cyperus rotundus L.), common ragweed (Ambrosia elatior L.), mustard (Brassica nigra (L.) W. D. J. Koch), guineagrass (Panicum maximum Jacq.), dallisgrass (Paspalum dilatatum Poir.), barnyardgrass (Echinochloa crus-galli (L). P. Beauv.), southern sandbur (Cenchrus echinatus L.), common sowthistle (Sonchus oleraceous L.), prickly sida (Sida spinosa L.), Italian ryegrass (Lolium multiflorum Lam.), common purslane (Portulaca oleracea L.), broadleaf signalgrass (Brachiaria platyphylla (Griseb.) Nash), common groundsel (Senecio vulgaris L.), common chickweed (Stellaria media (L.) Vill/Cyr.), tropical spiderwort (Commelina benghalensis L.), annual bluegrass (Poa annua L.), downy bromegrass (Bromus tectorum L.), itchgrass (Rottboellia cochinchinensis (L.) L.f.), quackgrass (Elytrigia repens (L.) Nevski), Canada horseweed (Erigeron Canadensis L.), field bindweed (Convolvulus arvensis L.), spotted spurge (Euphorbia maculata L.), common mallow (Malva sylvestris (=s silvestris) L.), and Russian thistle (Salsola kali L. ssp. Ruthenica (Iljin) Soo) were planted and treated preemergence with test chemicals formulated in a non-phytotoxic solvent mixture which included a surfactant.
At the same time, plants selected from these weed species were treated with postemergence applications of some of the test chemicals formulated in the same manner. Plants ranged in height from 2 to 18 cm (1- to 4-leaf stage) for postemergence treatments. Treated plants and controls were maintained in a greenhouse for 12 to 14 days, after which time all species were compared to controls and visually evaluated. Plant response ratings, summarized in Table E, are based on a scale of 0 to 100 where 0 is no effect and 100 is complete control. A dash (-) response means no test result.

goosegrass = assay: Test E pre-/postemergence herbicide test; type: in vivo, Eleusine indica; settings: Preemergence
Procedure, shortened: as §1

common ragweed = assay: Test E pre-/postemergence herbicide test; type: in vivo, Ambrosia elatior; settings: Preemergence
Procedure, shortened: as §1

green foxtail [2] = assay: Test C postemergence herbicide test; type: in vivo, Setaria viridis
Method: (§2) At the same time, plants selected from these crop and weed species and also winter barley (Hordeum vulgare L.), blackgrass (Alopecurus myosuroides Huds.), canarygrass (Phalaris minor Retz.), chickweed (Stellaria media (L.) Vill.), downy bromegrass (Bromus tectorum L.), green foxtail (Setaria viridis (L.) Beauv.), Italian ryegrass (Lolium multiflorum Lam.), wheat (Triticum aestivum L.), wild oat (Avenafatua L.) and windgrass (Apera spica-venti (L.) Beauv.) were treated with postemergence applications of some of the test chemicals formulated in the same manner. Plants ranged in height from 2 to 18 cm (1- to 4-leaf stage) for postemergence treatments. Plant species in the flooded paddy test consisted of rice (Oryza sativa), smallflower umbrella sedge (Cyperus difformis L.), ducksalad (Heteranthera limosa (Sw.) Willd.) and barnyardgrass (Echinochloa crus-galli (L.) Beauv.) grown to the 2-leaf stage for testing. Treated plants and controls were maintained in a greenhouse for 12 to 14 days, after which time all species were compared to controls and visually evaluated. Plant response ratings, summarized in Table C, are based on a scale of 0 to 100 where 0 is no effect and 100 is complete control. A dash (-) response means no test result.

winter barley = assay: Test C postemergence herbicide test; type: in vivo, Hordeum vulgare; settings: for Barley, Winter plant response rating: 500 g ai/ha
Method: as §2

canarygrass = assay: Test C postemergence herbicide test; type: in vivo, Phalaris minor
Method: as §2

[3] = 250 g ai/ha, scale 0 (no effect) to 100 (complete control)
[4] = 375 g ai/ha, scale 0 (no effect) to 100 (complete control)
[5] = 500 g ai/ha, scale 0 (no effect) to 100 (complete control)
[6] = Postemergence, 500 g ai/ha, scale 0 to 100
[7] = Postemergence, 250 g ai/ha, scale 0 to 100, 0 no effect, 100 complete control
[8] = postemergence, 125 g ai/ha, scale 0 to 100
[9] = postemergence, 62 g ai/ha, scale 0 to 100
[10] = Postemergence, 125 g ai/ha, scale 0 to 100, 0 no effect, 100 complete control
[11] = postemergence, 62 g ai/ha, scale 0 to 100 (0 no effect, 100 complete control)
[12] = postemergence, 31 g ai/ha, scale 0 to 100
[13] = Postemergence, 500 g ai/ha, scale 0 to 100, 0 no effect, 100 complete control

CCc1nn(C(C)(C)C)cc1C(=O)Nc1cc(C(=O)N(C)C)ccn1 [Compound 293]
Plant response rating, Dallisgrass (dallisgrass; 125 g ai/ha, scale 0 to 100): 60
Plant response rating, Dallisgrass (dallisgrass; [3]): 95
Plant response rating, Dallisgrass (dallisgrass; [4]): 95
Plant response rating, Dallisgrass (dallisgrass; [5]): 100
Plant response rating, Foxtail, Green (green foxtail [1]; 125 g ai/ha, scale 0 to 100): 50
Plant response rating, Foxtail, Green (green foxtail [1]; [3]): 95
Plant response rating, Foxtail, Green (green foxtail [1]; [4]): 95
Plant response rating, Foxtail, Green (green foxtail [1]; [5]): 100
Plant response rating, Johnsongrass (johnsongrass; 125 g ai/ha, scale 0 to 100): 10
Plant response rating, Johnsongrass (johnsongrass; [3]): 60
Plant response rating, Johnsongrass (johnsongrass; [4]): 70
Plant response rating, Johnsongrass (johnsongrass; [5]): 85
Plant response rating, Sandbur (southern sandbur; 125 g ai/ha, scale 0 to 100): 10
Plant response rating, Sandbur (southern sandbur; [3]): 100
Plant response rating, Sandbur (southern sandbur; [4]): 100
Plant response rating, Sandbur (southern sandbur; [5]): 100
Plant response rating, Crabgrass, Large (large crabgrass; 125 g ai/ha, scale 0 to 100): 95
Plant response rating, Crabgrass, Large (large crabgrass; [3]): 95
Plant response rating, Crabgrass, Large (large crabgrass; [4]): 100
Plant response rating, Crabgrass, Large (large crabgrass; [5]): 100
Plant response rating, Bluegrass (annual bluegrass; 125 g ai/ha, scale 0 to 100): 95
Plant response rating, Bluegrass (annual bluegrass; [3]): 95
Plant response rating, Bluegrass (annual bluegrass; [4]): 95
Plant response rating, Bluegrass (annual bluegrass; [5]): 100
Plant response rating, Prickly Sida (prickly sida; 250 g ai/ha): 80
Plant response rating, Prickly Sida (prickly sida; 375 g ai/ha): 100
Plant response rating, Prickly Sida (prickly sida; 500 g ai/ha): 100
Plant response rating, Goosegrass (goosegrass; 125 g ai/ha, scale 0 to 100): 90
Plant response rating, Goosegrass (goosegrass; [3]): 90
Plant response rating, Goosegrass (goosegrass; [4]): 95
Plant response rating, Goosegrass (goosegrass; [5]): 100
Plant response rating, Ragweed (common ragweed; 125 g ai/ha, scale 0 to 100): 50
Plant response rating, Ragweed (common ragweed; [3]): 70
Plant response rating, Ragweed (common ragweed; [4]): 100
Plant response rating, Ragweed (common ragweed; [5]): 100

CCn1nc(C(C)(C)C)cc1C(=O)Nc1cccc(OC(F)F)c1 [Compound 332]
Foxtail, Green plant response rating (green foxtail [2]; [6]): 70
Plant response rating, Foxtail, Green (green foxtail [2]; [7]): 50
Plant response rating, Foxtail, Green (green foxtail [2]; [8]): 40
Plant response rating, Foxtail, Green (green foxtail [2]; [9]): 35
Barley, Winter plant response rating (winter barley; Postemergence, scale 0 to 100): 40
Plant response rating, Barley, Winter (winter barley; [10]): 35
Plant response rating, Barley, Winter (winter barley; [7]): 40
Plant response rating, Barley, Winter (winter barley; [11]): 35
Canarygrass plant response rating (canarygrass; [6]): 70
Plant response rating, Canarygrass (canarygrass; [7]): 60
Plant response rating, Canarygrass (canarygrass; [8]): 45
Plant response rating, Canarygrass (canarygrass; [9]): 35

CCn1nc(C(C)(C)C)cc1C(=O)Nc1cc(C(=S)N(C)C)ccn1 [Compound 334]
Plant response rating, Foxtail, Green (green foxtail [2]; [7]): 45
Plant response rating, Foxtail, Green (green foxtail [2]; [8]): 35
Plant response rating, Foxtail, Green (green foxtail [2]; [9]): 35
Plant response rating, Barley, Winter (winter barley; [10]): 30
Plant response rating, Barley, Winter (winter barley; [7]): 30
Plant response rating, Barley, Winter (winter barley; [12]): 20
Plant response rating, Barley, Winter (winter barley; [11]): 20
Plant response rating, Canarygrass (canarygrass; [7]): 45
Plant response rating, Canarygrass (canarygrass; [8]): 35
Plant response rating, Canarygrass (canarygrass; [12]): 20
Plant response rating, Canarygrass (canarygrass; [9]): 25

CCNC(=O)c1ccc(F)c(NC(=O)c2c3c(nn2CC)C(C)(C)CC3)c1 [Compound 353]
Plant response rating, Foxtail, Green (green foxtail [2]; [7]): 20
Plant response rating, Foxtail, Green (green foxtail [2]; [13]): 30
Plant response rating, Foxtail, Green (green foxtail [2]; [8]): 20
Plant response rating, Foxtail, Green (green foxtail [2]; [9]): 15
Barley, Winter plant response rating (winter barley; Postemergence, scale 0 to 100): 25
Plant response rating, Barley, Winter (winter barley; [10]): 15
Plant response rating, Barley, Winter (winter barley; [7]): 20
Plant response rating, Barley, Winter (winter barley; [11]): 5
Plant response rating, Canarygrass (canarygrass; [7]): 10
Plant response rating, Canarygrass (canarygrass; [13]): 20
Plant response rating, Canarygrass (canarygrass; [8]): 10
Plant response rating, Canarygrass (canarygrass; [9]): 0

CCOC(=O)c1cccc(NC(=O)c2nn(C(C)(C)CC)nc2CC)c1 [Compound 375]
Plant response rating, Foxtail, Green (green foxtail [2]; [7]): 65
Plant response rating, Foxtail, Green (green foxtail [2]; [8]): 65
Plant response rating, Foxtail, Green (green foxtail [2]; [9]): 50
Plant response rating, Barley, Winter (winter barley; [10]): 30
Plant response rating, Barley, Winter (winter barley; [7]): 40
Plant response rating, Barley, Winter (winter barley; [12]): 10
Plant response rating, Barley, Winter (winter barley; [11]): 20
Plant response rating, Canarygrass (canarygrass; [7]): 35
Plant response rating, Canarygrass (canarygrass; [8]): 35
Plant response rating, Canarygrass (canarygrass; [12]): 30
Plant response rating, Canarygrass (canarygrass; [9]): 30

C=CCNC(=O)c1cccc(NC(=O)c2nn(C(C)(C)C)nc2CC)c1 [Compound 414]
Plant response rating, Foxtail, Green (green foxtail [2]; [7]): 65
Plant response rating, Foxtail, Green (green foxtail [2]; [13]): 65
Plant response rating, Foxtail, Green (green foxtail [2]; [8]): 60
Plant response rating, Foxtail, Green (green foxtail [2]; [9]): 60
Barley, Winter plant response rating (winter barley; Postemergence, scale 0 to 100): 45
Plant response rating, Barley, Winter (winter barley; [10]): 30
Plant response rating, Barley, Winter (winter barley; [7]): 45
Plant response rating, Barley, Winter (winter barley; [11]): 10
Plant response rating, Canarygrass (canarygrass; [7]): 50
Plant response rating, Canarygrass (canarygrass; [13]): 60
Plant response rating, Canarygrass (canarygrass; [8]): 45
Plant response rating, Canarygrass (canarygrass; [9]): 45
